In PMC4775225, “Bromodomain inhibition of the transcriptional coactivators CBP/EP300 as a therapeutic strategy to target the IRF4 network in multiple myeloma” (eLife, 2016):

Assays:
Assay in all cases: Viability, resazurin, 6 days
Type in all cases: cell-based
[1] = test system: U266; details: Homo sapiens, U-266, 144 h, U266, myeloma
Experimental: (§1) Cells were plated at 5000–10000 cells per well of 96-well plates containing titrations of the compounds as indicated. After incubation, the cells were incubated with 500 μg/ml resazurin (Sigma) in PBS for 2–8 hr, and fluorescence was measured (Ex 530 nm, Em 590 nm). Cell cycle analysis was performed as described previously ([Mertz et al., 2011]). For visualization, DNA content histograms were generated with GraphPad Prism. Dose-response curves were generated by plotting the normalized percent growth, percent sub-G1 and percent increase in G0/G1 at each dose values. GI50 values were determined as the concentration at which viability was 50% of the DMSO value and calculated by a four-parameter non-linear regression model in GraphPad Prism.

[2] = test system: Kasumi-2; details: Homo sapiens, 144 h, Kasumi-2, AML
Experimental: as §1

[3] = test system: JJN3; details: Homo sapiens, JJN-3, 144 h, JJN3, myeloma
Experimental: as §1

[4] = test system: OCI-AML-2; details: Homo sapiens, OCI-AML2, 144 h, OCI-AML-2, AML
Experimental: as §1

[5] = test system: SD-1; details: Homo sapiens, 144 h, SD-1, ALL
Experimental: as §1

[6] = test system: ML2; details: Homo sapiens, ML-2, 144 h, ML2, AML
Experimental: as §1

[7] = test system: HL60; details: Homo sapiens, HL-60, 144 h, HL60, APL
Experimental: as §1

[8] = test system: MV411; details: Homo sapiens, MV4-11, 144 h, MV411, AML
Experimental: as §1

[9] = test system: Tanoue; details: Homo sapiens, 144 h, ALL
Experimental: as §1

[10] = test system: KOPN-8; details: Homo sapiens, 144 h, KOPN-8, ALL
Experimental: as §1

[11] = test system: EJM; details: Homo sapiens, 144 h, myeloma
Experimental: as §1

[12] = test system: KMS26; details: Homo sapiens, KMS-26, 144 h, KMS26, myeloma
Experimental: as §1

[13] = test system: KMS34; details: Homo sapiens, KMS-34, 144 h, KMS34, myeloma
Experimental: as §1

[14] = test system: MN-60; details: Homo sapiens, 144 h, MN-60, ALL
Experimental: as §1

[15] = test system: SKM-1; details: Homo sapiens, 144 h, SKM-1, AML
Experimental: as §1

[16] = test system: Kasumi-1; details: Homo sapiens, 144 h, Kasumi-1, AML
Experimental: as §1

[17] = test system: KMS28PE; details: Homo sapiens, KMS-28PE, 144 h, myeloma
Experimental: as §1

[18] = test system: Jurkat; details: Homo sapiens, 144 h, ALL
Experimental: as §1

[19] = test system: KMS12BM; details: Homo sapiens, KMS-12-BM, 144 h, myeloma
Experimental: as §1

[20] = test system: SET2; details: Homo sapiens, SET-2, 144 h, SET2 D6, AML
Experimental: as §1

[21] = test system: THP-1; details: Homo sapiens, 144 h, THP-1, AML
Experimental: as §1

[22] = test system: NOMO-1; details: Homo sapiens, 144 h, NOMO-1, AML
Experimental: as §1

[23] = test system: K562; details: Homo sapiens, 144 h, K562, CML
Experimental: as §1

[24] = test system: SEM cells; details: Homo sapiens, 144 h, ALL
Experimental: as §1

[25] = test system: ROS 50; details: Homo sapiens, 144 h, ROS 50, ALL
Experimental: as §1

[26] = test system: REH; details: Homo sapiens, 144 h, ALL
Experimental: as §1

[27] = test system: KMS27; details: Homo sapiens, KMS-27, 144 h, KMS27, myeloma
Experimental: as §1

[28] = test system: OCI-AML-3; details: Homo sapiens, 144 h, OCI-AML-3, AML
Experimental: as §1

[29] = test system: MOLT4; details: Homo sapiens, MOLT-4, 144 h, MOLT4, ALL
Experimental: as §1

[30] = test system: PL21; details: Homo sapiens, PL-21, 144 h, PL21, APL
Experimental: as §1

[31] = test system: KMS21BM; details: Homo sapiens, KMS-21BM, 144 h, myeloma
Experimental: as §1

[32] = test system: KMS-11; details: Homo sapiens, 144 h, KMS-11, myeloma
Experimental: as §1

[33] = test system: MOLM-13; details: Homo sapiens, 144 h, MOLM-13, AML
Experimental: as §1

[34] = test system: Molt-16; details: Homo sapiens, 144 h, Molt-16, ALL
Experimental: as §1

[35] = test system: 380; details: Homo sapiens, 144 h, 380, ALL
Experimental: as §1

[36] = test system: SKNO-1; details: Homo sapiens, 144 h, SKNO-1, AML
Experimental: as §1

[37] = test system: NB4; details: Homo sapiens, NB-4, 144 h, NB4, APL
Experimental: as §1

[38] = test system: KMS12PE; details: Homo sapiens, KMS-12-PE, 144 h, myeloma
Experimental: as §1

[39] = test system: VAL; details: Homo sapiens, 144 h, ALL
Experimental: as §1

| GI50 [1] | GI50 [4] | GI50 [7] | GI50 [8] | GI50 [15] | GI50 [18] | Structure (SMILES) | GI50 [2] | GI50 [3] | GI50 [5] | GI50 [6] | GI50 [9] | GI50 [10] | GI50 [11] | GI50 [12] | GI50 [13] | GI50 [14] | GI50 [16] | GI50 [17] | GI50 [19] | GI50 [20] | further results |
| --- | --- | --- | --- | --- | --- | --- | --- | --- | --- | --- | --- | --- | --- | --- | --- | --- | --- | --- | --- | --- | --- |
| 7.61 µM | 9.7 µM | 4.55 µM | 13.1 µM | 15.9 µM | > 20 µM | CCC(=O)N1CCOc2c(cc(-c3ccc(OC)c(OC)c3)cc2OC[C@H]2CCCN(C)C2)C1 [I-CBP112] | 8.12 µM | 11.2 µM | 13.5 µM | > 20 µM | > 20 µM | 18.5 µM | 14.6 µM | 2.3 µM | 2.53 µM | > 20 µM | 3.22 µM | > 20 µM | 2.36 µM | 12.6 µM | GI50 [21]: 5.35 µM; GI50 [22]: 8.7 µM; GI50 [23]: > 20 µM; GI50 [24]: 5.34 µM; GI50 [25]: > 20 µM; GI50 [26]: > 20 µM; GI50 [27]: > 20 µM; GI50 [28]: 5.51 µM; GI50 [29]: > 20 µM; GI50 [30]: > 20 µM; GI50 [31]: 3.26 µM; GI50 [32]: 16.3 µM; GI50 [33]: 15.7 µM; GI50 [34]: 17.6 µM; GI50 [35]: > 20 µM; GI50 [36]: 9.5 µM; GI50 [37]: 17.8 µM; GI50 [38]: 12.8 µM; GI50 [39]: 14.2 µM |
| 2.63 µM | 3.68 µM | 4.01 µM | 3.33 µM | 6.61 µM | 12 µM | COc1ccc(CCc2nc3cc(-c4c(C)noc4C)ccc3n2C[C@H](C)N2CCOCC2)cc1Cl [SGC-CBP30] | 3.77 µM | 2.53 µM | 7.28 µM | 6.65 µM | 8.88 µM | 7.23 µM | 3.87 µM | 1.34 µM | 1.3 µM | 12.3 µM | 1.95 µM | 17.9 µM | 1.3 µM | 4.47 µM | GI50 [21]: 2.85 µM; GI50 [22]: 7.4 µM; GI50 [23]: 8.86 µM; GI50 [24]: 2.83 µM; GI50 [25]: 16.4 µM; GI50 [26]: 18.5 µM; GI50 [27]: 11.8 µM; GI50 [28]: 3.49 µM; GI50 [29]: 7.62 µM; GI50 [30]: 17 µM; GI50 [31]: 1.27 µM; GI50 [32]: 2.41 µM; GI50 [33]: 6.93 µM; GI50 [34]: 7.98 µM; GI50 [35]: 15.6 µM; GI50 [36]: 4.8 µM; GI50 [37]: 3.93 µM; GI50 [38]: 5.34 µM; GI50 [39]: 7.54 µM |
